Laboratory results published in US9732046B2, “Substituted 1,2,4-triazines as tubulin inhibitors” (YM Biosciences Australia Pty Ltd., priority 2003, dated 2017).

Assays:
[1] = system: Tubulin (microtubule protein); assay: Tubulin assay (turbidometric assay of microtubule assembly); format: biochemical; conditions: 50 μM, absorbance at 340 nm, 37° C.
Protocol: Turbidometric assays of microtubule assembly were performed by incubating microtubule protein in cuvettes at 37° C. in a thermostatically controlled spectrophotometer measuring the change in absorbance at 340 nm over time. The microtubule protein was incubated with the each test compound at 0° C. and polymerisation was initiated by addition of 1 mM GTP, prior to heating to 37° C.

[2] = system: DU145 (Prostate Cancer); assay: Cellular growth inhibition assay (MTT), DU145; format: cell-based; conditions: Homo sapiens
Protocol: (§1) For screening purposes, compounds were diluted in 96 well plates at a concentration of 20 μM. Plates were warmed at 37° C. for 30 minutes before assay.
(§2) K562 (Chronic Myeloid Leukemia), PC3 (Prostate Cancer), and DU145 (Prostate Cancer) were obtained from the American Type Culture Collection (ATCC). K562 was grown in RPMI, with 10% FBS with Glutamx added. DU145 cells were cultured in DMED, with 10% FBS and Glutamx and MEM non-essential amino acids added. PC3 cells were grown in F12K medium, with 10% FBS and Glutamx and MEM non-essential amino acids added. All cells were grown at 37° C. in 5% CO2.
(§3) Cell suspensions were prepared by harvesting cells from culture. (Cells used in this test should be in later log phase growth and high viability.) Cells were diluted in correct growth medium to 1.1× final concentration (from 50000 cell/mL to 200,000 cell/mL, depending on cell line).
(§4) Compounds to be tested were added (10 μL, 10× final concentration) to a flat bottom 96-well plate. The cellular suspension (90 μL per well) was added, and the plate incubated for 40 hr at 37° C., 5% CO2. MTT (20 μL per well, 5 mg/mL in PBS) was added and the plates were returned to the incubator for a further 6 hours. Lysis buffer (100 μL per well, 10% SDS, 0.01N HCl) was added and the plate stored in the incubator overnight. The plate was then read at 590 nm.

[3] = system: K562 (Chronic Myeloid Leukemia); assay: Cellular growth inhibition assay (MTT), K562; format: cell-based; conditions: Homo sapiens, Table 1, 40 hr incubation
Protocol: as §1, §2, §3, §4

[4] = system: PC3 (Prostate Cancer); assay: Cellular growth inhibition assay (MTT), PC3; format: cell-based; conditions: Table 1, 40 hr incubation
Protocol: as §1, §2, §3, §4

[5] = target: T1, TelJak3 (BaF3 TELJAK cells, TEL/JAK3 fusion) (Homo sapiens, UniProt P52333); assay: Cellular growth inhibition assay (MTT), BaF3 TEL:JAK3 cell line; format: cell-based
T1 construct: For JAK3 Sa1 I/Not I cleaved kinase domain PCR product was ligated with BamH I/Sa1 I cleaved TELproduct; expressed in transfected cells; host or cells: BaF3 cells bearing the pTET-off plasmid, transfected with pTELJAK3 (pTRE2 vector); the other entry of the earlier key: ETV6 (P41212, Transcription factor ETV6)
T1 sequence (P52333 with tags, fused parts or gaps): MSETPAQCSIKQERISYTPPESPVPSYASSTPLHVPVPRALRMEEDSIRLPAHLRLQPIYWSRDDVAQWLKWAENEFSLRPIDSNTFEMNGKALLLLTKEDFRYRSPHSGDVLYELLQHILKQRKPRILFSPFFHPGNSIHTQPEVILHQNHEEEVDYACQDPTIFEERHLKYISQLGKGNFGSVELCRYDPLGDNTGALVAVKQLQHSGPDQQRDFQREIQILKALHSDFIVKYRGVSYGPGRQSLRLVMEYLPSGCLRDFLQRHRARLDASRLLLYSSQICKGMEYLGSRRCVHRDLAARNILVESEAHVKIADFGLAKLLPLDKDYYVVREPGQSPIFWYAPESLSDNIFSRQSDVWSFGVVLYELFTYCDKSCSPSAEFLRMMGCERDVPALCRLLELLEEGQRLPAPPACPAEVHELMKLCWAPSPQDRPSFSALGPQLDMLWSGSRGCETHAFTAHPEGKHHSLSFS
Protocol: as §1
(§5) The coding region encompassing nucleotides 1-487 of TEL was amplified by PCR using the oligonucleotides 5TEL (5′-GGAGGATCCTGATCTCTCTCGCTGTGAGAC-3′) (SEQ ID NO: 1) and 3TEL (5′-AGGC GTCGACTTCTTCTTGATGGTTCTG-3′) (SEQ ID NO: 2) and U937 mRNA as template. A BamH I site was incorporated into the 5TEL primer, and a Sal I site was incorporated into the 3TEL primer. The regions encompassing the kinase domain of JAK2 (nucleotides 2994-3914; JAK2F 5′-ACGC GTCGACGGTGCCTTTGAAGACCGGGAT-3 (SEQ ID NO: 3); JAK2R 5′-ATAGTTTAGCGGCCGCTCAGAATGAAGGTCATTT-3′) (SEQ ID NO: 4) and JAK3 (nucleotides 2520-3469; JAK3F 5′-GAAGTCGACTATGCCTGCCAAGACCCCACGATCTT-3′ (SEQ ID NO: 5); JAK3R 5′-GGATCTAGACTATGAAAAGGACAGGGAGTGGTGTTT-3′ (SEQ ID NO: 6)) were generated by PCR using Taq DNA polymerase (Gibco/BRL) and U937 mRNA as template. A Sal I site was incorporated into the forward primer of JAK2 and JAK3, a Not I site was incorporated into the JAK2 reverse primer and a Xba I site was added to the reverse primer of JAK3.
(§6) A TEL/Jak2 fusion was generated by digestion of the TELPCR product with BamH I/Sa1 I, digestion of the JAK2 PCR product with Sa1 I/Not I followed by ligation and subcloning into the mammalian expression Vector pTRE 2 (Clontech) digested with BamH I-Not I (pTELJAK2). For JAK3 Sa1 I/Not I cleaved kinase domain PCR product was ligated with BamH I/Sa1 I cleaved TELproduct followed by ligation into BamH I/Not I cleaved pTRE2 (pTELJAK3).
(§7) The growth factor dependent myelomonocytic cell line BaF3 bearing the pTET-off plasmid (Clontech) was transfected with either pTELJAK2 or pTELJAK3 and the cells selected for factor independent growth. BaF 3 wild type cells were cultured in DMEM 10% FCS, 10% WEHI 3B conditioned medium. BaF3 TELJAK cells were cultured in DMEM 10% Tet-System Approved FBS (without WEHI 3B conditioned medium).
as §3, §4

[6] = target: T2, TelJak2 (BaF3 TELJAK cells, TEL/Jak2 fusion) (Homo sapiens, UniProt O60674); assay: Cellular growth inhibition assay (MTT), BaF3 TEL:JAK2 cell line; format: cell-based
T2 construct: The regions encompassing the kinase domain of JAK2 (nucleotides 2994-3914); expressed in transfected cells; host or cells: BaF3 cells bearing the pTET-off plasmid, transfected with pTELJAK2 (pTRE2 vector); the other entry of the earlier key: ETV6 (P41212, Transcription factor ETV6)
T2 sequence (O60674 with tags, fused parts or gaps): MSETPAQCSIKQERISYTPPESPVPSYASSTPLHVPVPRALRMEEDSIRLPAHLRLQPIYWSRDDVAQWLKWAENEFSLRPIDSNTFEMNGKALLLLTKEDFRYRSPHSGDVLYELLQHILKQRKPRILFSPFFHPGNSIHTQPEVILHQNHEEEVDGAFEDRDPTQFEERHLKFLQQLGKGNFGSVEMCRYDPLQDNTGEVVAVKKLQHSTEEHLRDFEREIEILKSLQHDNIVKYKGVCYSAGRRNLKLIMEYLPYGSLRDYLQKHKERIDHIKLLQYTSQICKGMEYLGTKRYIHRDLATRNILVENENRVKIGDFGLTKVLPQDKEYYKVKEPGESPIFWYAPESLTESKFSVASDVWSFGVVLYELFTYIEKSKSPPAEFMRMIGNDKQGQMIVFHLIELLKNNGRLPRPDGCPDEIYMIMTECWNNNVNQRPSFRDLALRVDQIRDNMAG
Protocol: as §1, §5, §6, §7, §3, §4

[7] = DU-145, Table 1, 40 hr incubation
[8] = DU-145, Table 2, 40 hr incubation

Compound	Tubulin inhibition of tubulin polymerisation ([1]; Table 1)	inhibition at 20 µM [2, 7] [%]	inhibition at 20 µM [3] [%]	inhibition at 20 µM [4] [%]	inhibition at 20 µM ([5]; Table 1, 40 hr incubation) [%]	inhibition at 20 µM ([6]; Table 1, 40 hr incubation) [%]	Tubulin inhibition of tubulin polymerisation ([1]; Table 2)	inhibition at 20 µM [2, 8] [%]	inhibition at 20 µM ([5]; Table 2, 40 hr incubation) [%]	inhibition at 20 µM ([6]; Table 2, 40 hr incubation) [%]
CCCC(Nc1cncc(-c2ccc(OCCN(CC)CC)c(OC)c2)n1)c1ccccc1 (stereo not drawn)	+ (compounds which inhibited tubulin polymerisation by greater than 50% at 50 μM)	> 50	> 50	> 50	> 50	> 50	–	–	–	–
CCCC(Nc1cncc(-c2ccc(OCCCn3ccnc3)c(OC)c2)n1)c1ccccc1 (stereo not drawn)	+ (compounds which inhibited tubulin polymerisation by greater than 50% at 50 μM)	> 50	> 50	> 50	> 50	> 50	–	–	–	–
CCCC(Nc1cc(-c2ccc(O)c(OC)c2)ncn1)c1cccnc1 (stereo not drawn)	+ (compounds which inhibited tubulin polymerisation by greater than 50% at 50 μM)	> 50	> 50	> 50	> 50	> 50	–	–	–	–
COc1cc(-c2cncc(NC(C)c3cccc(NC(=O)[C@H]4CCCN4)c3)n2)ccc1O (stereo partly drawn)	–	–	–	–	–	–	+ (compounds which inhibited tubulin polymerisation by greater than 50% at 50 μM)	> 50	> 50	> 50
CCCC(Nc1cncc(-c2ccc(CN)c(OC)c2)n1)c1cccnc1 (stereo not drawn)	+ (compounds which inhibited tubulin polymerisation by greater than 50% at 50 μM)	> 50	> 50	> 50	> 50	> 50	–	–	–	–
CCNC(=O)Nc1ccc(-c2cncc(NC(CCOC)c3ccccc3)n2)cc1OC (stereo not drawn)	+ (compounds which inhibited tubulin polymerisation by greater than 50% at 50 μM)	> 50	> 50	> 50	> 50	> 50	–	–	–	–
CCCC(Nc1cncc(-c2ccc(CN)cc2)n1)c1ccccc1 (stereo not drawn)	+ (compounds which inhibited tubulin polymerisation by greater than 50% at 50 μM)	> 50	> 50	> 50	> 50	> 50	–	–	–	–
CCC[C@H](Nc1nc(-c2ccc(O)c(OC)c2)ncc1C)c1cccnc1	+ (compounds which inhibited tubulin polymerisation by greater than 50% at 50 μM)	> 50	> 50	> 50	> 50	> 50	–	–	–	–
CCNC(=O)Nc1ccc(-c2ncc(C)c(N[C@@H](CC)c3cccnc3)n2)cc1OC	+ (compounds which inhibited tubulin polymerisation by greater than 50% at 50 μM)	> 50	> 50	> 50	> 50	> 50	–	–	–	–
CCCC(Nc1cncc(-c2ccc(OCCCCN3CCCC3)c(OC)c2)n1)c1ccccc1 (stereo not drawn)	+ (compounds which inhibited tubulin polymerisation by greater than 50% at 50 μM)	> 50	> 50	> 50	> 50	> 50	–	–	–	–
CC[C@H](Nc1nc(-c2ccc(O)c(OC)c2)ncc1C)c1cccnc1	+ (compounds which inhibited tubulin polymerisation by greater than 50% at 50 μM)	> 50	> 50	> 50	> 50	> 50	–	–	–	–
CCCC(Nc1cncc(-c2ccc(CN3CCCC3)cc2)n1)c1ccccc1 (stereo not drawn)	+ (compounds which inhibited tubulin polymerisation by greater than 50% at 50 μM)	> 50	> 50	> 50	> 50	> 50	–	–	–	–
COc1cc(-c2cncc(NC(C)c3ccc(-c4cccnc4)cc3)n2)ccc1O (stereo not drawn)	–	–	–	–	–	–	+ (compounds which inhibited tubulin polymerisation by greater than 50% at 50 μM)	> 50	> 50	> 50
COc1cc(-c2cncc(N[C@@H](C)c3ccccc3)n2)ccc1O	–	–	–	–	–	–	+ (compounds which inhibited tubulin polymerisation by greater than 50% at 50 μM)	> 50	> 50	> 50
COc1cc(-c2cncc(NC(C)c3cccc(NC(=O)c4cccnc4)c3)n2)ccc1O (stereo not drawn) [drawing 127]	–	–	–	–	–	–	+ (compounds which inhibited tubulin polymerisation by greater than 50% at 50 μM)	> 50	> 50	> 50
CC[C@H](Nc1cncc(-c2ccc(O)c(OC)c2)n1)c1ccccc1	–	–	–	–	–	–	+ (compounds which inhibited tubulin polymerisation by greater than 50% at 50 μM)	> 50	> 50	> 50
CCCC(Nc1cncc(-c2ccc(NC(=O)C3CCNCC3)c(OC)c2)n1)c1cccnc1 (stereo not drawn)	–	< 50	> 50	< 50	< 50	> 50	–	–	–	–
CCCC(Nc1cncc(-c2ccc(CN3CCOCC3)cc2)n1)c1ccccc1 (stereo not drawn)	–	< 50	< 50	< 50	< 50	> 50	–	–	–	–
COc1cc(-c2cncc(NC(C)c3cccc(NC(=O)c4cccnc4)c3)n2)ccc1O (stereo not drawn) [drawing 124]	–	–	–	–	–	–	+ (compounds which inhibited tubulin polymerisation by greater than 50% at 50 μM)	–	–	–
COc1cc(-c2ncc(C)c(NC(CCO)c3ccccc3)n2)ccc1O (stereo not drawn)	–	> 50	> 50	< 50	> 50	> 50	–	–	–	–
